What all share (assay type): cell-based
The target of experiment [1] is T1, α4β1 (Homo sapiens, UniProt P05556+P13612).
T1 construct: Jurkat™ lymphoma T cells express high levels of α4β1 integrin; endogenous in cells; host or cells: Jurkat cells
Kind of experiment: α4β1-dependent Jurkat adhesion to rs-hu-VCAM-1. The following applies: read-out: EC50, adhesion of Jurkat cells to human VCAM-1. From the text: Jurkat™ lymphoma T cells express high levels of α4β1 integrin and strongly adhere to VCAM-1 in an α4 integrin-dependent fashion.

Experiment [2] deals with T1, α4β1. Kind of experiment: α4β1-dependent Jurkat cell adhesion to human fibronectin. The following applies: TS2/16-activated α4β1, anti-α5 antibody present; read-out: EC50, Jurkat adhesion to FN. The method, then:
Jurkat™ cells adhere to fibronectin (FN) in an […] fashion.
5 μg/mL of an inhibitory antibody against α5 integrin (BD Pharmingen, Franklin Lakes, N.J.) is added to the buffer to prevent α5-dependent adhesion to FN.

Experiment [3] addresses T2, activated α4β1 on Jurkat cells (Homo sapiens, UniProt P05556+P13612).
T2 construct: Jurkat™ lymphoma T cells express high levels of α4β1 integrin; endogenous in cells; host or cells: Jurkat cells
Kind of experiment: α4β1-FN capture assay in human serum (Jurkat cells, FACS). The settings on record: 50% human serum. The method, then: The α4β1 receptors on Jurkat™ cell surfaces can capture, in solution, the endogenous FN present in serum.
An equal volume of assay buffer containing 50% human serum, the antibody 15/7 (2×, 20 μg/ml) and MnCl2 (2×, 3 mM) was then added to each well. These reagents served as α4 integrin activating agents, allowing the receptor to capture FN from the serum. The plate was then incubated for another 30 minutes at RT.

What is called EC50 is the concentration that produces a half-maximal response.

T1 sequence (P13612 34-1032): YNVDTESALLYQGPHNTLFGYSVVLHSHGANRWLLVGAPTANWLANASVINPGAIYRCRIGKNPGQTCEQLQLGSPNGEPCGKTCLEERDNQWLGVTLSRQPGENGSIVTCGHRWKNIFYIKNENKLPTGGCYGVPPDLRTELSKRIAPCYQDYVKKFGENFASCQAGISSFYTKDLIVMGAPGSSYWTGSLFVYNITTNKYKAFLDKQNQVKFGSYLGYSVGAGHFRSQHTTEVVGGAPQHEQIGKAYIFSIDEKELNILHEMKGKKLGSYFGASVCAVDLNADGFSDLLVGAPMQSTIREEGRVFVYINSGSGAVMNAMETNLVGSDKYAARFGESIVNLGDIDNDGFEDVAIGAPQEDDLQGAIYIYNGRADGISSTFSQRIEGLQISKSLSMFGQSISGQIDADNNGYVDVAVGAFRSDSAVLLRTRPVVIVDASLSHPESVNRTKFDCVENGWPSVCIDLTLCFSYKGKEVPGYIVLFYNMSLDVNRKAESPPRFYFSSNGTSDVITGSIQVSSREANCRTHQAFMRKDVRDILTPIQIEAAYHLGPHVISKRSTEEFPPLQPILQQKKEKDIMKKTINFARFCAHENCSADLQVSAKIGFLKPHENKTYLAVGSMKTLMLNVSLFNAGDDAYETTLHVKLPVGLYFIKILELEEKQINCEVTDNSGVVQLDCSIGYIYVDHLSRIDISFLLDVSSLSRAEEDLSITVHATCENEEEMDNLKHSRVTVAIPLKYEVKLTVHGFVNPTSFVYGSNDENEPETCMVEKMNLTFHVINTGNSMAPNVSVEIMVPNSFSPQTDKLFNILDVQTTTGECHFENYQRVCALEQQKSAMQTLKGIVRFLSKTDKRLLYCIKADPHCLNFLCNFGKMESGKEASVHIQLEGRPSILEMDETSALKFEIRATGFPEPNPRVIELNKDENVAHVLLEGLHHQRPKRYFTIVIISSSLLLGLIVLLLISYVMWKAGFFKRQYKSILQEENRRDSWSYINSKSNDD
T1 sequence (P05556 21-798): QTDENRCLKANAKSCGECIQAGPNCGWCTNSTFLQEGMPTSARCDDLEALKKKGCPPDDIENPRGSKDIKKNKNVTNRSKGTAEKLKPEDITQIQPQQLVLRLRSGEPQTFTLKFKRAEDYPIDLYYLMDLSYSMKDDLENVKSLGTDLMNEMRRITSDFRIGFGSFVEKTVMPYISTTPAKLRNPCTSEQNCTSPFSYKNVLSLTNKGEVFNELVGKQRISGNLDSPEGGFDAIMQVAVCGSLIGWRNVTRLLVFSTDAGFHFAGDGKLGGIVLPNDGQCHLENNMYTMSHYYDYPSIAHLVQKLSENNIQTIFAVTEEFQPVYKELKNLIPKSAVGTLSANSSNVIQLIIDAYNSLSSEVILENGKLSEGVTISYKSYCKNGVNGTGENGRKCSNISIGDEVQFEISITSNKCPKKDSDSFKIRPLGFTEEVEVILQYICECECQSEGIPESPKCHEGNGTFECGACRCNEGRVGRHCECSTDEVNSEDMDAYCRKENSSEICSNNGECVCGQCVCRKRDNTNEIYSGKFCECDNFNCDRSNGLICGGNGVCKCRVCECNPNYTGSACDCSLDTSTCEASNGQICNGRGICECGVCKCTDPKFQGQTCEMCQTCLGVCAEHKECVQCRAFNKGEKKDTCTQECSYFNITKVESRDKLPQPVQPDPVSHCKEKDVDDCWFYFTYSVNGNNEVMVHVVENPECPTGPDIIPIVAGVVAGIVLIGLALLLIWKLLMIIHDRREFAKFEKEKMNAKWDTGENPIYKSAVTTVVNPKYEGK
T2 sequence (P13612 34-1032): as the sequence (P13612 34-1032) above
T2 sequence (P05556 21-798): as the sequence (P05556 21-798) above

For `CC1(C)SCN(S(=O)(=O)c2cccnc2)[C@@H]1C(=O)N[C@@H](Cc1ccc(-n2c(=O)[nH]c3cccnc32)cc1)C(=O)O`, the results for the EC50 in experiment [1] and in experiment [2] were 11.6 nM and 0.1 nM, respectively. The “fold less potent than Formula (I), FN capture” value in experiment [3] was found to be 2.6 fold.

For the origin of these results see patent publication US20120059029A1 (Elan Pharmaceuticals, Inc., priority 2010, published 2012).
